From PubChem BioAssay (NCI)
Values joined by “and” are separate entries in the source; they are usually repeats but may differ in a detail not shown here. Equal entries are not always repeated.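 Briefly, cells in 96-well plates were exposed to five compound concentrations for 48 h, and endpoints were estimated by linear interpolation. GI50 marks 50% less growth. The concentration for full growth arrest is given as TGI.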

Columns and labels:
Experiment in all cases: NCI anticancer screen, dose series, 48 h
T-47D breast = tested on: T-47D breast
BT-549 breast = tested on: BT-549 breast
MDA-MB-435 = tested on: MDA-MB-435
HS 578T breast = tested on: HS 578T breast

Compound	GI50 (T-47D breast)	TGI (T-47D breast)	GI50 (BT-549 breast)	TGI (BT-549 breast)	GI50 (MDA-MB-435)	TGI (MDA-MB-435)	GI50 (HS 578T breast)	TGI (HS 578T breast)
Nc1c(C(=O)Nc2ccccc2)sc2nc3c(cc12)CCCCCC3	0.892 µM	20.5 µM	0.286 µM	4.05 µM	0.068 µM	0.266 µM	0.529 µM	9.64 µM
CCC1=C(C)/C(=C/c2[nH]c(C)c(C(=O)CCCCC(=O)OC)c2C)N=C1c1ccc[nH]1	3.45 µM	13.8 µM	3.8 µM	> 41.3 µM	10.4 µM	46.1 µM	14.7 µM	50.4 µM
CS(=O)(=O)c1ccc(Oc2cc(F)cc(C#N)c2)c2c1[C@H](O)[C@H](F)[C@@H]2F	> 100 µM	> 100 µM	> 100 µM	> 100 µM	> 100 µM	> 100 µM	> 100 µM	> 100 µM
Cn1c(C(N)=O)cc2c1-c1nc(Nc3ccccc3)ncc1CCC2	7.12 µM	37.4 µM	3.29 µM	27.8 µM	3.88 µM	> 100 µM	1.97 µM	6.9 µM
O=[N+]([O-])c1cnc(Sc2ccncn2)c([N+](=O)[O-])c1	1.78 µM	3.8 µM	15.2 µM	28.9 µM	4.91 µM	18.1 µM	19.2 µM	57.2 µM
COC(=O)/C=C/c1cc(O)c2c(c1)C(C(=O)OC)C(c1ccc(O)c(O)c1)O2 (stereo not drawn)	1.55 µM	57.9 µM	0.127 µM and 0.103 µM	39.8 µM and 5.39 µM		0.0513 µM	0.468 µM and 0.0614 µM	> 100 µM
O=C(Nc1ccc(S(=O)(=O)Nc2nccs2)cc1)c1cccnc1Nc1cccc(Cl)c1	8.42 µM	> 100 µM	16 µM	39.3 µM	14.3 µM	33.4 µM	19.5 µM	67.5 µM
O=C(/C=C/c1ccco1)c1ccc(Nc2nc(Nc3ccc(F)cc3)nc(Nc3ccc(Cl)cc3)n2)cc1	20.3 µM	> 100 µM	2.23 µM	> 29.6 µM	30.5 µM	> 59.6 µM	26 µM	> 91.4 µM
O=C(Nc1ccc(Cl)c([N+](=O)[O-])c1)Nc1nc2ccccc2s1	2.48 µM	10.6 µM	16.4 µM	44.7 µM	2.73 µM	8.15 µM	2.85 µM	12.3 µM
O=C1/C(=C/c2cccc([N+](=O)[O-])c2)COc2ccc(O)c(O)c21	1.17 µM	3.92 µM	2.42 µM	4.84 µM	1.69 µM	3.77 µM	2.04 µM	7.47 µM
CCCCCCCCCCCCN1C(C)=CS/C1=C\C=C\c1scc(C)[n+]1CCCCCCCCCCCC	0.817 µM	6.77 µM	1.54 µM	7.17 µM	1.21 µM	3.68 µM	1.77 µM	6.62 µM
CN(C)/[N+]([O-])=N/Oc1cc(Nc2cccc(C(=O)O)c2)c([N+](=O)[O-])cc1[N+](=O)[O-]			72.2 µM	> 100 µM	> 100 µM	> 100 µM	34.7 µM	> 100 µM
COc1cc(/C=C(/C)[N+](=O)[O-])ccc1O	2.07 µM and 2.25 µM	5.05 µM and 5.72 µM	2.34 µM and 3.08 µM	4.67 µM and 8.82 µM	2.16 µM and 1.64 µM	6.33 µM and 4.4 µM	4.67 µM	> 28.4 µM
Oc1c(CN2CCC(N3CCOCC3)CC2)cc(Cc2cc(CN3CCC(N4CCOCC4)CC3)c(O)c3ncccc23)c2cccnc12	1.11 µM	17 µM	1.2 µM	29 µM	2.01 µM	74.7 µM	10 µM	48 µM
CN(C)CCNC(=O)c1ccc(Nc2nc3ccccc3c3occc23)cc1	16.4 µM	39.8 µM	5.69 µM	23.9 µM	1.95 µM	3.94 µM	18.6 µM	42.1 µM
Oc1ccc2ccccc2c1C=NCCCN=Cc1c(O)ccc2ccccc12	6.66 µM	43 µM	18.5 µM	47.8 µM	10.8 µM	71.2 µM	8.05 µM	36.7 µM
CC(C)C[C@H](NC(=O)[C@H](Cc1ccccc1)n1ccc(N2CCCCC2)cc1=O)B(O)O	0.781 µM	6.09 µM	0.364 µM	4.32 µM	0.177 µM	0.371 µM	0.427 µM	6.2 µM
CCNC(=O)C[C@@H]1N=C(c2ccc(Cl)cc2)c2cc(OC)ccc2-n2c(C)nnc21	2.9 µM	> 100 µM	> 28.1 µM	> 100 µM	1.75 µM	> 100 µM	0.796 µM	> 41.5 µM
CNc1ccccc1C(=O)N/N=C/C=C/c1ccccc1	3.48 µM	> 86.9 µM	53.2 µM	> 100 µM			1.97 µM	> 100 µM
Nc1ccccc1C#CC#Cc1ccccc1N	> 100 µM	> 100 µM	20.5 µM	49 µM	4.6 µM	31.3 µM		
